Measured values from patent US12478661B2, “Lung cell treatments to prevent or treat disease” (THE JOHNS HOPKINS UNIVERSITY, priority 2017, dated 2025).

How the values were obtained:
HBEKT cells [1] = assay: Airway surface liquid (ASL) height in HBEKTs at air liquid interface; format: cell-based, human; conditions: CATR 20 μM, BKA 4 μM
Protocol: (§1) The apical surface of cells was washed once with PBS 18 hours prior to the addition of Texas Red. ASL was visualized by adding 10-kD Texas Red-dextran (17.5 μl per 12-well insert, ThermoFisher) to the apical surface of NHBE or HBEKT cultures at air liquid interface, as previously described. ASL was imaged 4 hours later by acquiring 4×4 tiled z-stacks by live-cell confocal microscopy with a heat and CO2 controlled stage (Zeiss 780 with a 40× water objective). Fluorinert ([…] was added to the top of the insert cultures immediately prior to imaging to prevent evaporation. Z-stacks were analyzed by segmentation and pixel thickness analysis. For experiments with ANT inhibitors, CATR (20 μM, Sigma) and BKA (4 μM, Sigma) in 20 μl PBS (or control PBS alone) were added to the apical surface of ALI cultures (NHBEs or HBEKTs) 18 hours prior to ASL assessment. Texas Red was added 4 hours prior to ASL testing. For apyrase treatment, 10 units of apyrase (Sigma) was added with Texas Red-dextran as described above 4 hours prior to ASL assessment.
Thickness across the sample was computed using a custom script, written in Matlab (Mathworks, Natick, MA). […] For each y in this binary image, the number of segmented pixels was counted, giving a measure of the thickness in the (x, y) location; see FIG. 13. […]

[2] = test system: primary ciliated normal human bronchial epithelial cells (NHBEs); assay: Airway surface liquid (ASL) thickness in primary NHBEs at air liquid interface; format: cell-based; conditions: CATR 20 μM; for effect on the ANT2 overexpression increase in ASL: BKA 4 μM apical 18 hours, apyrase 10 units 4 hours
Protocol: as §1
Thickness across the sample was computed using a custom script, written in Matlab (Mathworks, Natick, MA). Briefly, for each value x in the three-dimensional images, Im(x,y, z), the resultant (y, z) slice was segmented using adaptive thresholding (Matlab command: imbinarize), followed by operations to fill holes (imfill), morphological opening (imopen) and filtering of small regions (bwareaopen) (FIG. 13a). The threshold level was adjusted after preprocessing the complete image and the process repeated. For each y in this binary image, the number of segmented pixels was counted, giving a measure of the thickness in the (x, y) location; see FIG. 13. This gave a histogram of depths over the image (FIG. 13c). An average depth was computed for all pixels in which a non-zero depth was detected (to avoid edge effects). The process was repeated by fixing y and working with the (x, z) slice. The differences between the averages were typically less than 1-2%. Thickness in pixels was converted to μm using a slice thickness of 0.46 μm, the step size used to collect the z-stack.

HBEKT cells [3] = assay: Seahorse Mitostress cellular metabolism (OCR, ATP production, proton leak); format: cell-based, human; conditions: 30 min after injection, CATR 20 μM, BKA 4 μM
Protocol: For metabolic analysis, HBEKT cells were cultured in 96-well Seahorse assay plates (Agilent) and infected with adenovirus constructs for ANT1, ANT2 and control for target overexpression at 48 hours (MOI 40, Vector BioLabs) or siRNA target suppression using siRNA and Lipofectamine as described above for ANT1, ANT2 or non-targeting control siRNA at 72 hours. After viral infection or siRNA transfection, cells were treated for 4 hours with KSFM media alone or 20% CSE. Cells were washed once in KSFM, followed by washes in buffered Seahorse Assay medium (pH 7.4) and subsequent metabolic testing according to the manufacturer's protocol (Agilent Seahorse XF96). Oligomycin (2 μM, ATPase inhibitor), FCCP (0.25 μM mitochondrial uncoupler) and a cocktail of rotenone (0.5 μM, ETC complex I inhibitor) and antimycin A (0.5 μM, ETC complex III inhibitor) were sequentially injected after three basal rates were measured. Sample measurements were normalized to total cellular mass determined by CyQuant Assay according to the manufacturer protocol (Molecular Probes, ThermoFisher). For experiments including ANT specific inhibitors, carboxyatractyloside (CATR, 20-μM, Sigma), Bongkrekic acid (BKA, 4-μM, Sigma) or vehicle control were injected into wells after basal OCR measurements were taken followed by repeat OCR measurements 30 minutes after compound injection. […]

| Molecule | effect on the ANT2 enhancement of ASL height (HBEKT cells [1]) | effect on the ANT2 overexpression increase in ASL [2] | ATP production after ANT inhibitor (HBEKT cells [3]) | basal oxidative respiration after ANT inhibitor (HBEKT cells [3]) | ASL in control virus-treated cells [2] |
| --- | --- | --- | --- | --- | --- |
| CO[C@H](C/C=C\C=C\CC/C=C/C[C@H](C)/C=C/C(=C\C(=O)O)CC(=O)O)/C(C)=C\C=C(/C)C(=O)O [Bongkrekic acid] | abolished | abrogated | halted | halted | – |
| C=C1[C@@H]2CC[C@H]3[C@]4(C)C[C@H](O[C@@H]5O[C@H](CO)[C@@H](OS(=O)(=O)O)[C@H](OS(=O)(=O)O)[C@H]5OC(=O)CC(C)C)CC(C(=O)O)(C(=O)O)[C@H]4CC[C@]3(C2)[C@H]1O [carboxyatractyloside] | abolished | abrogated | – | – | trend towards decreasing ASL |
| apyrase | – | reversed | – | – | – |
